{"source": "patent US20250057928A1", "about": "“VACCINE COMPOSITION FOR INDUCING ANTI-IL-23 ANTIBODY” (OSAKA UNIVERSITY, priority 2021, published 2025)", "key": {"epitope peptide": {"system": "epitope peptide", "assay": "Antibody titer (GMT) of serum of hairless rats, ELISA", "assay_type": "in vivo, rat", "conditions": "1 mg/body intradermal 3 times at two-week intervals, serum at 6 weeks", "description": "AJP001 conjugated peptide having one of the B cell epitope sequences of SEQ ID NOs: 1-5 was dissolved in physiological saline and intradermally administered twice to BALB/c mice (female, 6-week-old, N=5-6) at 0.5 mg/body at 2-week intervals. Blood was collected before administration and 5 weeks after the initial administration, and the antibody titer against each AJP001 conjugated peptide and the binding ability to recombinant mouse IL-23 protein (rmIL-23) were measured by the ELISA method. Specifically, a 96-well plate immobilized with an epitope peptide dissolved at 10 μg/mL in carbonate buffer was blocked with 5% skim milk/PBS, and then serum serially diluted with 5% skim milk/PBS was added, and the mixture was left standing at 4° C. overnight. […] After washing the wells with PBS-T, TMB solution (SIGMA) was added, the wells were allowed to stand for 30 min in the dark, the reaction was stopped by adding 0.5M H2SO4, and the absorbance at 450 nm was measured using a plate reader. The serum dilution rate that gave 1/2 (OD=1.75) of the maximum absorbance was defined as the antibody titer, and the geometric mean titer: GMT was calculated from the individual values. Binding to IL-23 protein was measured by the ELISA method in the same manner as the antibody titer, using rmIL-23 (Antibodies-online GmbH) as the solid-phased antigen and goat serum for blocking. […]"}, "BALB/c mice": {"system": "BALB/c mice", "assay": "rmIL-23-induced mouse auricle inflammation model", "assay_type": "in vivo", "description": "AJP001 conjugated peptide (SEQ ID NO: 2) was dissolved in physiological saline and intradermally administered to BALB/c mice (female, 6-week-old, N=8) at 1 mg/body 3 times at two-week intervals. At the time point of 6 weeks after the initial administration, rmIL-23 was administered intradermally to the ear to induce inflammation. With the first administration as Day 0, rmIL-23 was administered 4 times in total on Days 2, 4, and 7. As a control group, an rmIL-23 group without administration of peptide was provided. Auricular thickness was measured using a thickness gauge on each day of administration of rmIL-23 and on Day 9. In order to measure the mRNA expression of IL-17A, IL-22, IL-1β, LCN-2, and CXCL-2 in the auricle, the auricle was collected on the third day of rmIL-23 administration under the same conditions. For mRNA evaluation, a normal group without administration of rmIL-23 was set. […] Using TaqMan Gene Expression Assays (S18: Mm02601777_g1; CXCL-2: Mm00436450_m1; IL-17A: Mm00439618_m1; IL-22: Mm01226722_m1; IL-1β: Mm00434228_m1; LCN-2: Mm01324470_m1), Ct value was measured using Applied Biosystems 7900HT Fast Real Time PCR System. The mRNA expression level was calculated by the ΔΔCt method and evaluated as a relative value to the normal group. […]"}}, "note": "Where no end group is shown, it is not given here."}
{"substance": "SEQ ID NO 2: AJP001-Ahx-B cell epitope peptide conjugate; epitope SSSQQWQR (mouse 152-159) (not fully specified (N-terminus); listed as Mus musculus)", "values": [{"measurement": "antibody titer (GMT)", "setting": "epitope peptide", "value": "increase"}, {"measurement": "mRNA expression of IL-17A, IL-22, IL-1β, LCN-2, and CXCL-2 in auricle", "setting": "BALB/c mice; 1 mg/body 3 times, third day of rmIL-23 administration", "value": "suppressive action"}, {"measurement": "increase in auricular thickness", "setting": "BALB/c mice; 1 mg/body intradermal 3 times, rmIL-23 intradermal to ear from week 6", "value": "suppressive action"}]}
